Experimental data published in PubChem BioAssay (NCI).
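Interpolation was linear, between the two tested concentrations surrounding the appropriate level; five concentrations were tested over 48 hours in 96-well plates. Definition used: TGI = concentration required for complete inhibition of growth.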

Key:
Experiment in all cases: NCI tumour cell line growth inhibition, 48 h
A498 renal = system: A498 renal
A549 NSCLC = system: A549 NSCLC
CAKI-1 renal = system: CAKI-1 renal
CCRF-CEM leukemia = system: CCRF-CEM leukemia
COLO 205 colon = system: COLO 205 colon
DLD-1 colon = system: DLD-1 colon
DMS 114 small cell lung = system: DMS 114 small cell lung
DMS 273 small cell lung = system: DMS 273 small cell lung
EKVX NSCLC = system: EKVX NSCLC
HCC-2998 colon = system: HCC-2998 colon
HCT-116 colon = system: HCT-116 colon
HCT-15 colon = system: HCT-15 colon
HL-60(TB) leukemia = system: HL-60(TB) leukemia
HOP-18 NSCLC = system: HOP-18 NSCLC
HOP-62 NSCLC = system: HOP-62 NSCLC
HOP-92 NSCLC = system: HOP-92 NSCLC
HT29 colon = system: HT29 colon
IGROV1 ovarian = system: IGROV1 ovarian
K-562 leukemia = system: K-562 leukemia
KM12 colon = system: KM12 colon
LOX IMVI melanoma = system: LOX IMVI melanoma
M19-MEL melanoma = system: M19-MEL melanoma
MALME-3M melanoma = system: MALME-3M melanoma
MCF7 breast = system: MCF7 breast
MOLT-4 leukemia = system: MOLT-4 leukemia
NCI-H226 lung = system: NCI-H226 lung
NCI-H23 lung = system: NCI-H23 lung
NCI-H460 lung = system: NCI-H460 lung
NCI-H522 lung = system: NCI-H522 lung
NCI/ADR-RES ovarian = system: NCI/ADR-RES ovarian
OVCAR-3 ovarian = system: OVCAR-3 ovarian
OVCAR-4 ovarian = system: OVCAR-4 ovarian
OVCAR-5 ovarian = system: OVCAR-5 ovarian
OVCAR-8 ovarian = system: OVCAR-8 ovarian
P388 leukemia = system: P388 leukemia
P388/ADR leukemia = system: P388/ADR leukemia
RPMI-8226 leukemia = system: RPMI-8226 leukemia
RXF 393 renal = system: RXF 393 renal
SF-268 CNS = system: SF-268 CNS
SF-295 CNS = system: SF-295 CNS
SF-539 CNS = system: SF-539 CNS
SK-MEL-2 melanoma = system: SK-MEL-2 melanoma
SK-MEL-28 melanoma = system: SK-MEL-28 melanoma
SK-MEL-5 melanoma = system: SK-MEL-5 melanoma
SK-OV-3 ovarian = system: SK-OV-3 ovarian
SN12C renal = system: SN12C renal
SN12K1 renal = system: SN12K1 renal
SNB-19 CNS = system: SNB-19 CNS
SNB-75 CNS = system: SNB-75 CNS
SNB-78 CNS = system: SNB-78 CNS
SW-620 colon = system: SW-620 colon
U251 CNS = system: U251 CNS
UACC-257 melanoma = system: UACC-257 melanoma
UACC-62 melanoma = system: UACC-62 melanoma
UO-31 renal = system: UO-31 renal
786-0 renal = system: 786-0 renal
ACHN renal = system: ACHN renal
KM20L2 colon = system: KM20L2 colon
LXFL 529 NSCLC = system: LXFL 529 NSCLC
M14 melanoma = system: M14 melanoma
RXF-631 renal = system: RXF-631 renal
TK-10 renal = system: TK-10 renal
XF 498 CNS = system: XF 498 CNS

Structure (SMILES): CC(=O)OCC1OC(Nc2ncc(-c3ccc(C)cc3)s2)C(OC(C)=O)C(OC(C)=O)C1OC(C)=O (centres undefined)
- TGI (A498 renal): > 100 µM
- TGI (A549 NSCLC): > 100 µM
- TGI (CAKI-1 renal): > 81.1 µM
- TGI (CCRF-CEM leukemia): > 100 µM
- TGI (COLO 205 colon): > 100 µM
- TGI (DLD-1 colon): > 100 µM
- TGI (DMS 114 small cell lung): > 100 µM
- TGI (DMS 273 small cell lung): > 100 µM
- TGI (EKVX NSCLC): > 100 µM
- TGI (HCC-2998 colon): > 62.9 µM
- TGI (HCT-116 colon): > 62.5 µM
- TGI (HCT-15 colon): > 100 µM
- TGI (HL-60(TB) leukemia): 43.7 µM
- TGI (HOP-18 NSCLC): > 100 µM
- TGI (HOP-62 NSCLC): > 100 µM
- TGI (HOP-92 NSCLC): > 100 µM
- TGI (HT29 colon): > 100 µM
- TGI (IGROV1 ovarian): > 100 µM
- TGI (K-562 leukemia): > 100 µM
- TGI (KM12 colon): > 94.1 µM
- TGI (LOX IMVI melanoma): > 68.3 µM
- TGI (M19-MEL melanoma): > 31.6 µM
- TGI (MALME-3M melanoma): > 100 µM
- TGI (MCF7 breast): 35.8 µM
- TGI (MOLT-4 leukemia): 65.3 µM
- TGI (NCI-H226 lung): 91.4 µM
- TGI (NCI-H23 lung): > 100 µM
- TGI (NCI-H460 lung): > 80.9 µM
- TGI (NCI-H522 lung): > 100 µM
- TGI (NCI/ADR-RES ovarian): 78 µM
- TGI (OVCAR-3 ovarian): > 88.1 µM
- TGI (OVCAR-4 ovarian): 60.6 µM
- TGI (OVCAR-5 ovarian): > 100 µM
- TGI (OVCAR-8 ovarian): > 100 µM
- TGI (P388 leukemia): 72.5 µM
- TGI (P388/ADR leukemia): > 94.1 µM
- TGI (RPMI-8226 leukemia): 65.4 µM
- TGI (RXF 393 renal): > 100 µM
- TGI (SF-268 CNS): > 100 µM
- TGI (SF-295 CNS): > 100 µM
- TGI (SF-539 CNS): > 82.6 µM
- TGI (SK-MEL-2 melanoma): > 78.2 µM
- TGI (SK-MEL-28 melanoma): > 100 µM
- TGI (SK-MEL-5 melanoma): > 100 µM
- TGI (SK-OV-3 ovarian): > 100 µM
- TGI (SN12C renal): 62.2 µM
- TGI (SN12K1 renal): > 100 µM
- TGI (SNB-19 CNS): > 100 µM
- TGI (SNB-75 CNS): > 100 µM
- TGI (SNB-78 CNS): > 100 µM
- TGI (SW-620 colon): > 100 µM
- TGI (U251 CNS): > 100 µM
- TGI (UACC-257 melanoma): 58.3 µM
- TGI (UACC-62 melanoma): > 77.2 µM
- TGI (UO-31 renal): 41 µM

Structure (SMILES): COc1ccc(C(=O)C(CO)Oc2ccccc2OC)cc1OC (centres undefined)
- TGI (786-0 renal): > 100 µM
- TGI (A498 renal): > 100 µM
- TGI (A549 NSCLC): > 100 µM
- TGI (ACHN renal): > 100 µM
- TGI (CAKI-1 renal): > 100 µM
- TGI (CCRF-CEM leukemia): > 100 µM
- TGI (COLO 205 colon): > 100 µM
- TGI (DLD-1 colon): > 100 µM
- TGI (DMS 114 small cell lung): > 100 µM
- TGI (DMS 273 small cell lung): > 100 µM
- TGI (EKVX NSCLC): > 100 µM
- TGI (HCC-2998 colon): > 100 µM
- TGI (HCT-116 colon): > 100 µM
- TGI (HCT-15 colon): > 100 µM
- TGI (HL-60(TB) leukemia): > 100 µM
- TGI (HOP-62 NSCLC): > 100 µM
- TGI (HT29 colon): > 100 µM
- TGI (IGROV1 ovarian): > 100 µM
- TGI (K-562 leukemia): > 100 µM
- TGI (KM12 colon): > 100 µM
- TGI (KM20L2 colon): > 100 µM
- TGI (LOX IMVI melanoma): > 100 µM
- TGI (LXFL 529 NSCLC): > 100 µM
- TGI (M14 melanoma): > 100 µM
- TGI (M19-MEL melanoma): > 100 µM
- TGI (MALME-3M melanoma): > 100 µM
- TGI (MOLT-4 leukemia): > 100 µM
- TGI (NCI-H23 lung): > 100 µM
- TGI (NCI-H460 lung): > 100 µM
- TGI (NCI-H522 lung): > 100 µM
- TGI (OVCAR-3 ovarian): > 100 µM
- TGI (OVCAR-4 ovarian): > 100 µM
- TGI (OVCAR-5 ovarian): > 100 µM
- TGI (OVCAR-8 ovarian): > 100 µM
- TGI (RPMI-8226 leukemia): > 100 µM
- TGI (RXF-631 renal): > 100 µM
- TGI (SF-268 CNS): > 100 µM
- TGI (SF-295 CNS): > 100 µM
- TGI (SF-539 CNS): > 100 µM
- TGI (SK-MEL-2 melanoma): > 100 µM
- TGI (SK-MEL-28 melanoma): > 100 µM
- TGI (SK-MEL-5 melanoma): > 100 µM
- TGI (SK-OV-3 ovarian): > 100 µM
- TGI (SN12C renal): > 100 µM
- TGI (SNB-19 CNS): > 100 µM
- TGI (SNB-75 CNS): > 100 µM
- TGI (SNB-78 CNS): > 100 µM
- TGI (SW-620 colon): > 100 µM
- TGI (TK-10 renal): > 100 µM
- TGI (U251 CNS): > 100 µM
- TGI (UACC-257 melanoma): > 100 µM
- TGI (UACC-62 melanoma): > 100 µM
- TGI (UO-31 renal): > 100 µM
- TGI (XF 498 CNS): > 100 µM
